Experimental data reported in US20190374543A1, “Therapeutic Combinations of an Antifolate and a BTK Inhibitor” (Acerta Pharma B.V., priority 2016, published 2019).

Assays:
Type in all cases: in vivo
[1] = test system: type II collagen arthritis; experiment: histopathology of paws and knees in mouse type II collagen arthritis model; conditions: for Histopathology Summed Scores (All Joints): mean (SE)
From the text: (§1) On study day 43, mice were euthanized and necropsy specimens were obtained. After terminal bleeds, animals were euthanized by cervical dislocation. Fore paws, hind paws, and knees were harvested and placed in 10% neutral buffered formalin (NBF) for microscopy. Spleens were harvested from a subset of mice and processed for splenocytes.
After 1-2 days in fixative and 4-5 days in 5% formic acid for decalcification, tissues were trimmed, and processed for paraffin embedding. Paws were embedded in paraffin in the frontal plane and knees were embedded with the patella facing down. Ankles, if left attached to the hind paw, were also embedded in the frontal plane but in some instances were detached and sectioned in the sagittal plane for special purposes. Left/right pairs were typically embedded in the same block. Sections were then cut and stained with toluidine blue.
When scoring paws or ankles from mice with lesions of type II collagen arthritis, severity of changes as well as number of individual joints affected was considered. When only one to three joints of the paws or ankles out of a possibility of numerous metacarpal/metatarsal/digit or tarsal/tibiotarsal joints was affected, an arbitrary assignment of a maximum score of 0.5, 1, 2 or 3 for parameters below was given depending on severity of changes. If more than three joints were involved, the criteria below were applied to the most severely affected/majority of joints. In the case of knees, severity of changes in medial and lateral, as well as femoropatellar spaces, were considered.
The following parameters were scored according to the indicated criteria: Inflammation Score, Pannus Score, Cartilage Damage Score, Bone Resorption Score, and Periosteal New Bone Formation Score and Measurements. Unless otherwise indicated, criteria apply to both paws and knees. Mean values for each parameter are determined separately for the paws, knees, and the entire animal (if applicable).
The Inflammation Score was determined based on the following criteria for Paw Score and Knee Score.
The Paw Score was classified based on the following criteria: 0=Normal; 0.5=Very minimal, affects only 1 joint or minimal multifocal periarticular infiltration of inflammatory cells; 1=Minimal infiltration of inflammatory cells in synovium and periarticular tissue of affected joints; 2=Mild infiltration of inflammatory cells. If referring to paws, generally restricted to affected joints (1-3 affected); 3=Moderate infiltration with moderate edema. If referring to paws, restricted to affected joints, generally 3-4 joints and the wrist or ankle; 4=Marked infiltration affecting most areas with marked edema, 1 or 2 unaffected joints may be present; 5=Severe diffuse infiltration with severe edema affecting all joints (to some extent) and periarticular tissues.
The Knee Score was classified based on the following criteria: 0=Normal; 0.5=Very minimal, affects only one area of the synovium or minimal multifocal periarticular infiltration of inflammatory cells; 1=Minimal infiltration of inflammatory cells in synovium and periarticular tissue of affected synovial areas; 2=Mild diffuse infiltration of inflammatory cells; 3=Moderate diffuse infiltration of inflammatory cells; 4=Marked diffuse infiltration of inflammatory cells; 5=Severe diffuse infiltration of inflammatory cells.
The inflammatory infiltrate in mice and rats with type II collagen arthritis consists of neutrophils and macrophages with smaller numbers of lymphocytes when the lesions are in the acute to subacute phase. Tissue edema and neutrophil exudates within the joint space are common in the acute to subacute phase. As the inflammation progresses to chronic, mononuclear inflammatory cells (monocytes, lymphocytes) predominate and fibroblast proliferation, often with deposition of metachromatic matrix, occurs in synovium and periarticular tissue. Exudate is less common in the joint space.

[2] = molecular target: T1, BTK (Mus musculus, UniProt P35991); experiment: BTK occupancy in splenocytes collected after euthanasia; conditions: with vs without MTX co-treatment
T1 construct: from tissue; host or cells: splenocytes from spleens of collagen-induced-arthritis DBA/1 mice
From the text: as §1

[3] = test system: type II collagen arthritis; experiment: mouse type II collagen arthritis model: body weight, daily clinical arthritis scores (AUC), incidence
[4] = 5 mg/kg Formula (2) alone, vs vehicle controls
[5] = Group 3: MTX vehicle + BTK inhibitor of formula (2) 1 mg/kg PO QD d28-43
[6] = Group 4: MTX vehicle + BTK inhibitor of formula (2) 5 mg/kg PO QD d28-43
[7] = Group 5: MTX 0.3 mg/kg PO QD d18-43 + BTK inhibitor of formula (2) vehicle
[8] = Group 6: MTX 0.5 mg/kg PO QD d18-43 + BTK inhibitor of formula (2) vehicle

T1 sequence (P35991 whole entry): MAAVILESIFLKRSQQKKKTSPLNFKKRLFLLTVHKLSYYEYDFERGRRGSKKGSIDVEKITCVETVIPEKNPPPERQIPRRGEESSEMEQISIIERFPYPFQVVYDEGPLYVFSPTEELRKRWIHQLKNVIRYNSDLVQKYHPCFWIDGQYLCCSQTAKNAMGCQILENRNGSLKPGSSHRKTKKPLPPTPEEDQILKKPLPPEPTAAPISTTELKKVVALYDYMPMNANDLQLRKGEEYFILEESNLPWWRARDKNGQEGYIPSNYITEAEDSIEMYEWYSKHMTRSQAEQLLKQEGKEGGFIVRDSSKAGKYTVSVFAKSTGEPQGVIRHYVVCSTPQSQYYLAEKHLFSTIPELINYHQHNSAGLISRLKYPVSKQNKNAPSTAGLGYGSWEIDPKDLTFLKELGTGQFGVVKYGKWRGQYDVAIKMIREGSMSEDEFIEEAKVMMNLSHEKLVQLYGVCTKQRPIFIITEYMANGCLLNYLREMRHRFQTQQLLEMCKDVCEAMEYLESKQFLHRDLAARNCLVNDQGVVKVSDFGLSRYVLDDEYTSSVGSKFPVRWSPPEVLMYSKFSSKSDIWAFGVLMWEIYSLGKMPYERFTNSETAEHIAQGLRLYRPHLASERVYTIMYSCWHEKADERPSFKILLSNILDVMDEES

## CC#CC(=O)N1CCC[C@H]1c1nc(-c2ccc(C(=O)Nc3ccccn3)cc2)c2c(N)nccn12 [BTK inhibitor of Formula (2), (S)-4-(8-amino-3-(1-(but-2-ynoyl)pyrrolidin-2-yl)imidazo[1,5-c]pyrazin-1-yl)-N-(pyridin-2-yl)benzamide]
[1]; [4]
  reduction of knee bone resorption: 90%
  reduction of knee inflammation: 72%
  reduction of knee pannus formation: 85%
  reduction of summed knee histopathology scores: 74%
  reduction of summed paw histopathology scores: 72%
  reduction of summed six-joint mean histopathology scores: 73%
  reductions of all paw histopathology parameters: 59-82%
  reductions of all six-joint mean histopathology parameters: 63-82%
  reductions of paw and six-joint mean periosteal bone widths: 82-83%
[1]; [5]
  Histopathology Summed Scores (All Joints): 11.03 (1.01)
[1]; [6]
  Histopathology Summed Scores (All Joints): *4.15 (1.01)
[2]
  Btk occupancy in splenocytes: the same in the presence or absence of MTX
[3]; 1 mg/kg Formula (2), vs vehicle controls, Day 36
  disease-induced body weight loss (percent change from baseline): significantly inhibited
[3]; [4]
  daily clinical arthritis scores over time: differed significantly
  inhibition of absolute body weight loss at study termination: 66%
  reduction of arthritis scores AUC Days 18-43: 62%
[3]; 5 mg/kg Formula (2), vs vehicle controls, Days 32-38 and 43
  disease-induced body weight loss (percent change from baseline): significantly inhibited
[3]; 5 mg/kg Formula (2), vs vehicle controls, Study Days 30-43
  clinical arthritis scores: significantly reduced
[3]; [5]
  Change in Body Weight (g) Day 18-43: -0.19 g
  Clinical Arthritis Score AUC Day 18-43: 61.41
  Clinical Arthritis Score AUC Day 28-43: 54.81
  Percent Incidence: 100%
[3]; [6]
  Change in Body Weight (g) Day 18-43: *0.12 g
  Clinical Arthritis Score AUC Day 18-43: *27.30
  Clinical Arthritis Score AUC Day 28-43: *21.27
[3]; Group 4: MTX vehicle + BTK inhibitor of formula (2) 5 mg/kg PO QD d28-43, at termination, 5 mg/kg
  Percent Incidence: 42%
[3]; Group 4: MTX vehicle + BTK inhibitor of formula (2) 5 mg/kg PO QD d28-43, at termination, listed as BTK inhibitor of formula (2), 5 mg/kg
  Percent Incidence: 42%

## CN(Cc1cnc2nc(N)nc(N)c2n1)c1ccc(C(=O)N[C@@H](CCC(=O)O)C(=O)O)cc1 [MTX, (2S)-2-[(4-{[(2,4-Diaminopteridin-6-yl)methyl](methyl)amino}benzoyl)amino]pentanedioic acid, reference compound]
[1]; [7]
  Histopathology Summed Scores (All Joints): 10.24 (1.66)
[1]; [8]
  Histopathology Summed Scores (All Joints): 8.46 (1.36)
[3]; 0.5 mg/kg MTX alone, vs vehicle controls
  daily clinical arthritis scores over time: differed significantly
[3]; 0.5 mg/kg MTX, vs vehicle controls, Days 25-29
  clinical arthritis scores: significantly reduced
[3]; [7]
  Change in Body Weight (g) Day 18-43: -1.16 g
  Clinical Arthritis Score AUC Day 18-43: 51.72
  Clinical Arthritis Score AUC Day 28-43: 48.82
  Percent Incidence: 100%
[3]; [8]
  Change in Body Weight (g) Day 18-43: -0.83 g
  Clinical Arthritis Score AUC Day 18-43: 46.79
  Clinical Arthritis Score AUC Day 28-43: 45.51
  Percent Incidence: 100%
